From ChEMBL document CHEMBL1134959, “Synthesis and testing of 2alpha-modified 1alpha,25-dihydroxyvitamin D(3) analogues with a double side chain: marked cell differentiation activity” (2002)

How the values were obtained:
HL-60 = test: Compound was evaluated for its relative cell differentiation of human promyelocytic leukemia cells (HL-60); format: functional
[1] = biological target: T1, Vitamin D3 receptor (Bos taurus) (UniProt Q28037); test: Affinity for bovine thymus vitamin D receptor
T1 sequence (whole entry): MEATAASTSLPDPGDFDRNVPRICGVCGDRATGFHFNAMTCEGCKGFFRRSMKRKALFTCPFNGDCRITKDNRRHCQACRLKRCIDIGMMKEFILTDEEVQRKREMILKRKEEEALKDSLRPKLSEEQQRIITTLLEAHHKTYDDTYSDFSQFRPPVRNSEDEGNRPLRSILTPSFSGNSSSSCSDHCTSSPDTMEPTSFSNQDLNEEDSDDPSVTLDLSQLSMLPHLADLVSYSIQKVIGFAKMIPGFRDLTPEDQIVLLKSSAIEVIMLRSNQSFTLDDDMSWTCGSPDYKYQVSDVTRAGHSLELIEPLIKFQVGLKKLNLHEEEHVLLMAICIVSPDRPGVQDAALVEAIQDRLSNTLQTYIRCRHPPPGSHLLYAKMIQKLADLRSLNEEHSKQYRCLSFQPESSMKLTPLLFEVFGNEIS

Activity [1]	SMILES	Activity (HL-60)
36	C=C1/C(=C\C=C2/CCC[C@@]3(C)C2CC[C@@H]3C(CCCC(C)(C)O)CCCC(C)(C)O)C[C@@H](O)[C@H](OCCCO)[C@@H]1O (stereo not given in full)	1920
57	C=C1/C(=C\C=C2/CCC[C@@]3(C)C2CC[C@@H]3C(CCCC(C)(C)O)CCCC(C)(C)O)C[C@@H](O)[C@H](CCCO)[C@@H]1O (stereo not given in full)	1280

Continued, compound first:

SMILES	Activity [1]	Activity (HL-60)
C=C1/C(=C\C=C2/CCC[C@]3(C)[C@@H]([C@H](C)CCCC(C)(C)O)CC[C@@H]23)C[C@@H](O)C[C@@H]1O [CALCITRIOL]	100	100
C=C1/C(=C\C=C2/CCC[C@@]3(C)C2CC[C@@H]3C(CCCC(C)(C)O)CCCC(C)(C)O)C[C@@H](O)C[C@@H]1O (stereo not given in full)	24	1060
C=C1/C(=C\C=C2/CCC[C@@]3(C)C2CC[C@@H]3C(CCCC(C)(C)O)CCCC(C)(C)O)C[C@@H](O)[C@H](C)[C@@H]1O (stereo not given in full)	53	3840
